# What was measured:
# Assay in all cases: Dundee kinase panel
# Format in all cases: biochemical
# Settings in all cases: for remaining activity at 1 µM: read-out: residual activity
# [1] = target: T1, MST4 (Homo sapiens, UniProt Q9P289)
# T1 construct: lines 1-140) and Reaction Biology
# Protocol: (§1) Compounds were screened at 1 μM. For key hits, pIC50 values were then determined by HTRF as above. […] Stability in mouse and human liver microsomes was determined by Cyprotex.
# [2] = target: T2, BRSK2 (Homo sapiens, UniProt Q8IWQ3)
# T2 construct: lines 1-140) and Reaction Biology
# T2 sequence (Q8IWQ3 1-736): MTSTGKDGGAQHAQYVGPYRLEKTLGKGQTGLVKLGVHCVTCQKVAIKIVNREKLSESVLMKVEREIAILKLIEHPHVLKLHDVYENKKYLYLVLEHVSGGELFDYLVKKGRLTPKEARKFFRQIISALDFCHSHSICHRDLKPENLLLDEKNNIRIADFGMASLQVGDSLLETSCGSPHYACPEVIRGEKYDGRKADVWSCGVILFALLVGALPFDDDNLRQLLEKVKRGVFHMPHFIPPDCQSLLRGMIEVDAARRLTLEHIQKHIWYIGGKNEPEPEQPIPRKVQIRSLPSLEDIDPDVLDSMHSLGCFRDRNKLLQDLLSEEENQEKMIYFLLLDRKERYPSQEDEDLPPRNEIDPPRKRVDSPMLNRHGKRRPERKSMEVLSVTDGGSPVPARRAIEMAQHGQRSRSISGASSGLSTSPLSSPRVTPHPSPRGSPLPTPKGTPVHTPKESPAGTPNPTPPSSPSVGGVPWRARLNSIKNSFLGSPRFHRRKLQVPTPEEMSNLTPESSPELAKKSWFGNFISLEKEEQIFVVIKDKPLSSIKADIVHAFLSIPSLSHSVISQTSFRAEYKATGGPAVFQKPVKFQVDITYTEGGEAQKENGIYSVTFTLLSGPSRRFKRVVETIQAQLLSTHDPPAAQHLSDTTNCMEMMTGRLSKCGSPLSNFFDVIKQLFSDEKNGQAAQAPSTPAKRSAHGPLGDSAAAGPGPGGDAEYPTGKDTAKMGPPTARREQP
# Protocol: as §1
# [3] = target: T3, TTK (Homo sapiens, UniProt P33981)
# T3 construct: lines 1-140) and Reaction Biology
# T3 sequence (P33981 1-857): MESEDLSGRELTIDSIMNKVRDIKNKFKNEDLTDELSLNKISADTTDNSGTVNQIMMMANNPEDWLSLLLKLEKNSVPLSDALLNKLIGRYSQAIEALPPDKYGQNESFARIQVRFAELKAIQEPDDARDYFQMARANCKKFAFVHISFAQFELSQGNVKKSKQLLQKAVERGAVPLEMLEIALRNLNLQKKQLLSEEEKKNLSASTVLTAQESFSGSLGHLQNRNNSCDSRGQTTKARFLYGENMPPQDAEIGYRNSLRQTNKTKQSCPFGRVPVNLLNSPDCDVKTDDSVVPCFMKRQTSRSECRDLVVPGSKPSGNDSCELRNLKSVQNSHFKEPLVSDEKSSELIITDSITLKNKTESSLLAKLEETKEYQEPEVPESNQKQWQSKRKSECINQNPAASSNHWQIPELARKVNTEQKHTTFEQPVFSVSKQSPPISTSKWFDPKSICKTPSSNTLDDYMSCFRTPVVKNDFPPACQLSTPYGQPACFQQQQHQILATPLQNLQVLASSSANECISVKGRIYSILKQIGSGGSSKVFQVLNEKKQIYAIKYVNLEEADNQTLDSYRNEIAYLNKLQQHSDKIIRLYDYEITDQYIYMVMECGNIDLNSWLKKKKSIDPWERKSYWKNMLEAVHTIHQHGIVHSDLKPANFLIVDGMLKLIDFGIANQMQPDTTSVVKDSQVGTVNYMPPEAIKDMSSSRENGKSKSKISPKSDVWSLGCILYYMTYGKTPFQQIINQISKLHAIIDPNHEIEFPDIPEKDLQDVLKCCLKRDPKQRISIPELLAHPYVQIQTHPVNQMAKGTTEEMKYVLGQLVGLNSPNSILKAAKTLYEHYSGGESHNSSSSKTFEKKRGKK
# Protocol: as §1
# [4] = target: T4, CSK (Homo sapiens, UniProt P41240)
# T4 construct: lines 1-140) and Reaction Biology
# T4 sequence (P41240 whole entry): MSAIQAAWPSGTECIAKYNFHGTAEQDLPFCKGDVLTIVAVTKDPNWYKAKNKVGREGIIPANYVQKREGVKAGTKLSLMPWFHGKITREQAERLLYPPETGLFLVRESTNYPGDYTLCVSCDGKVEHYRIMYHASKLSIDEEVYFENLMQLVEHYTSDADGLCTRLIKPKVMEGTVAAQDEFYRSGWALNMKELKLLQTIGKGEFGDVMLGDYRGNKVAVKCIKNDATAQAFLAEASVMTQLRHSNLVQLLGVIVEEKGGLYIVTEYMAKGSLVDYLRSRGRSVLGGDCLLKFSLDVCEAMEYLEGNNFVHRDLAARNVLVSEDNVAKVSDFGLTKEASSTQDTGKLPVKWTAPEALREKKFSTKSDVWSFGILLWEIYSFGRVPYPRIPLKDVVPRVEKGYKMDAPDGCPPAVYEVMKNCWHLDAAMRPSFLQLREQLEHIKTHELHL
# Protocol: as §1
# [5] = target: T5, IKKe (Homo sapiens, UniProt Q14164)
# T5 construct: lines 1-140) and Reaction Biology
# T5 sequence (Q14164 1-716): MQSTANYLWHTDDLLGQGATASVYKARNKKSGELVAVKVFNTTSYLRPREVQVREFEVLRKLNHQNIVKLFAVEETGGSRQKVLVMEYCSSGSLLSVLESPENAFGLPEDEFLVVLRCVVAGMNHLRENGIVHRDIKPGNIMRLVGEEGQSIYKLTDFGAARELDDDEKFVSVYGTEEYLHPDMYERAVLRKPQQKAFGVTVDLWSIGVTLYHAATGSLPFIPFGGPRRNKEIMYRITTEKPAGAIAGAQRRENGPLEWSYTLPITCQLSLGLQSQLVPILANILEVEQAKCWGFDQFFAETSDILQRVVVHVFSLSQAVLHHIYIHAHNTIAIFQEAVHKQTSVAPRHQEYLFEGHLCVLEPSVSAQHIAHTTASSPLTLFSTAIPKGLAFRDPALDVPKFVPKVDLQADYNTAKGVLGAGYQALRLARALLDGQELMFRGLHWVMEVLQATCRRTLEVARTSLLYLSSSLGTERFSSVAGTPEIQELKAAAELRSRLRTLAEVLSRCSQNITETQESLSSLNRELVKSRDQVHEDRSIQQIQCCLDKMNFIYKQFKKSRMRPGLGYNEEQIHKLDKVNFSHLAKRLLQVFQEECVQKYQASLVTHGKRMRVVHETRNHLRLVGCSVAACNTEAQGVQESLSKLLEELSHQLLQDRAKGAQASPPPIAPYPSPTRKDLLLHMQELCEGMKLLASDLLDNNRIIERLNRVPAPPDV
# Protocol: as §1
# [6] = target: T6, MST2 (Homo sapiens, UniProt Q13188)
# T6 construct: lines 1-140) and Reaction Biology
# T6 sequence (Q13188 1-491): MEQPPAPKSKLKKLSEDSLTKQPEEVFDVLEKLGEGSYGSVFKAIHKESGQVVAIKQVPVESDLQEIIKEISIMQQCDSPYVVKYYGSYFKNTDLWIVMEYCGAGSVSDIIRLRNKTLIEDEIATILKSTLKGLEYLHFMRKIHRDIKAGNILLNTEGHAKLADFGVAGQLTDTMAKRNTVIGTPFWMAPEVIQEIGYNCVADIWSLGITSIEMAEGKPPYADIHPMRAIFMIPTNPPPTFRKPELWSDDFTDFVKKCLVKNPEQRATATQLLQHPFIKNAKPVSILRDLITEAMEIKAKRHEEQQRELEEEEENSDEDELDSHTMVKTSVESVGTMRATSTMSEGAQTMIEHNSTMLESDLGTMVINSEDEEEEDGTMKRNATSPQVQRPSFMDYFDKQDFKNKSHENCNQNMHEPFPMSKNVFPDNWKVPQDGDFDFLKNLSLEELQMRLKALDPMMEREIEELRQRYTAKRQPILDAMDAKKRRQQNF
# Protocol: as §1
# T1 sequence (Q9P289 whole entry): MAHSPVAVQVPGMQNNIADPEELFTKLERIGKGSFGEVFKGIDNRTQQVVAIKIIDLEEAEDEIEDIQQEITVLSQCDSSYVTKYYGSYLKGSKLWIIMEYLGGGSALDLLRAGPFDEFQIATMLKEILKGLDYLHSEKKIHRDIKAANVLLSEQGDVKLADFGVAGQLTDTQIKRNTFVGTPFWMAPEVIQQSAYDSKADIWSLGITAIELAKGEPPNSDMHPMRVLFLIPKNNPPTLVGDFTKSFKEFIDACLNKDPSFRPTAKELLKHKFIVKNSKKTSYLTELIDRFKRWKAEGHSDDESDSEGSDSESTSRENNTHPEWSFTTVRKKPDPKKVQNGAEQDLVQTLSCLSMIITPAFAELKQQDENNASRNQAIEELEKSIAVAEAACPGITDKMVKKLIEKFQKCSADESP
smiles,measurement,setting,value
O=C1Nc2ccc(I)cc2/C1=C/c1cc(Br)c(O)c(Br)c1 [GW5074],remaining activity at 1 µM,[1],89%
same,remaining activity at 1 µM,[2],75%
same,remaining activity at 1 µM,[3],88%
same,remaining activity at 1 µM,[4],52%
same,remaining activity at 1 µM,[5],82%
same,remaining activity at 1 µM,[6],93%
"Oc1ncnc2c1c(-c1ccccc1)cn2-c1ccccc1 [F1386-0303, 5,7-diphenyl-7H-pyrrolo[2,3-d]pyrimidin-4-ol]",remaining activity at 1 µM,[1],109%
same,remaining activity at 1 µM,[2],91%
same,remaining activity at 1 µM,[3],97%
same,remaining activity at 1 µM,[4],97%
same,remaining activity at 1 µM,[5],139%
same,remaining activity at 1 µM,[6],63%
O=C1Cc2c([nH]c3ccc(Br)cc23)-c2ccccc2N1 [Kenpaullone],remaining activity at 1 µM,[1],74%
same,remaining activity at 1 µM,[2],35%
same,remaining activity at 1 µM,[3],97%
same,remaining activity at 1 µM,[4],68%
same,remaining activity at 1 µM,[5],98%
same,remaining activity at 1 µM,[6],63%
"COCCOc1ccc(-c2cn(-c3ccccc3)c3nc[nH]c(=O)c23)cc1 [DMX-5804, 5-[4-(2-methoxy-ethoxy)-phenyl]-7-phenyl-3,7-dihydro-pyrrolo[2,3-d]pyrimidin-4-one]",remaining activity at 1 µM,[1],102%
same,remaining activity at 1 µM,[2],92%
same,remaining activity at 1 µM,[3],105%
same,remaining activity at 1 µM,[4],103%
same,remaining activity at 1 µM,[5],106%
same,remaining activity at 1 µM,[6],46%
Nc1ncc(C(=O)NC2CN(C(=O)C3CC3)C2)c2ccc(-c3cccc(F)c3)nc12 [GNE-495],residual activity,[1]; 1 μM,117%
same,residual activity,[2]; 1 μM,77%
same,residual activity,[3]; 1 μM,87%
same,residual activity,[4]; 1 μM,94%
same,residual activity,[5]; 1 μM,79%
same,residual activity,[6]; 1 μM,76%

# Reference: article PMC6458995, “MAP4K4 Inhibition Promotes Survival of Human Stem Cell-Derived Cardiomyocytes and Reduces Infarct Size In Vivo” (Cell Stem Cell, 2019)
